Data taken from patent US7601716B2, “Pyridopyrazines and derivatives thereof as ALK and c-Met inhibitors” (Cephalon, Inc., priority 2006, dated 2009).
Counter-ions that a name gives are not always drawn.

Tests used:
[1] = biological target: T1, c-Met (cytoplasmic domain) (Homo sapiens, UniProt P08581); assay: c-Met Kinase Assay (ELISA/TRF, PLC-γ substrate); type: biochemical; conditions: 3 μM ATP (Km level); read-out: c-Met Kinase Inhibition (IC50)
T1 construct: Reactions were initiated with 30 ng/mL c-Met (cytoplasmic domain, Invitrogen Corporation #PV3143); purchased Invitrogen Corporation PV3143
In short: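 c-Met cytoplasmic domain (30 ng/mL) phosphorylates plate-coated GST–PLC-γ for 15 min at 37 °C. Phosphotyrosine detected with Eu-labeled PT66 antibody by time-resolved fluorescence. IC50 from variable-slope sigmoidal fit of % inhibition vs log concentration.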

[2] = biological target: baculovirus-expressed ALK (Homo sapiens, UniProt Q9UM73); assay: ALK Kinase Assay (ELISA/TRF, PLC-γ substrate); type: biochemical; conditions: read-out: ALK Kinase Inhibition (IC50); further: 1 µM ATP (Km level)
In short: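 An ELISA adapted from a trkA format was used: wells carried GST-fused PLC-γ substrate, and enzyme addition (30 ng/ml ALK) started a 15-minute reaction at 37° C.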

Chain of baculovirus-expressed ALK (Q9UM73 19-1620): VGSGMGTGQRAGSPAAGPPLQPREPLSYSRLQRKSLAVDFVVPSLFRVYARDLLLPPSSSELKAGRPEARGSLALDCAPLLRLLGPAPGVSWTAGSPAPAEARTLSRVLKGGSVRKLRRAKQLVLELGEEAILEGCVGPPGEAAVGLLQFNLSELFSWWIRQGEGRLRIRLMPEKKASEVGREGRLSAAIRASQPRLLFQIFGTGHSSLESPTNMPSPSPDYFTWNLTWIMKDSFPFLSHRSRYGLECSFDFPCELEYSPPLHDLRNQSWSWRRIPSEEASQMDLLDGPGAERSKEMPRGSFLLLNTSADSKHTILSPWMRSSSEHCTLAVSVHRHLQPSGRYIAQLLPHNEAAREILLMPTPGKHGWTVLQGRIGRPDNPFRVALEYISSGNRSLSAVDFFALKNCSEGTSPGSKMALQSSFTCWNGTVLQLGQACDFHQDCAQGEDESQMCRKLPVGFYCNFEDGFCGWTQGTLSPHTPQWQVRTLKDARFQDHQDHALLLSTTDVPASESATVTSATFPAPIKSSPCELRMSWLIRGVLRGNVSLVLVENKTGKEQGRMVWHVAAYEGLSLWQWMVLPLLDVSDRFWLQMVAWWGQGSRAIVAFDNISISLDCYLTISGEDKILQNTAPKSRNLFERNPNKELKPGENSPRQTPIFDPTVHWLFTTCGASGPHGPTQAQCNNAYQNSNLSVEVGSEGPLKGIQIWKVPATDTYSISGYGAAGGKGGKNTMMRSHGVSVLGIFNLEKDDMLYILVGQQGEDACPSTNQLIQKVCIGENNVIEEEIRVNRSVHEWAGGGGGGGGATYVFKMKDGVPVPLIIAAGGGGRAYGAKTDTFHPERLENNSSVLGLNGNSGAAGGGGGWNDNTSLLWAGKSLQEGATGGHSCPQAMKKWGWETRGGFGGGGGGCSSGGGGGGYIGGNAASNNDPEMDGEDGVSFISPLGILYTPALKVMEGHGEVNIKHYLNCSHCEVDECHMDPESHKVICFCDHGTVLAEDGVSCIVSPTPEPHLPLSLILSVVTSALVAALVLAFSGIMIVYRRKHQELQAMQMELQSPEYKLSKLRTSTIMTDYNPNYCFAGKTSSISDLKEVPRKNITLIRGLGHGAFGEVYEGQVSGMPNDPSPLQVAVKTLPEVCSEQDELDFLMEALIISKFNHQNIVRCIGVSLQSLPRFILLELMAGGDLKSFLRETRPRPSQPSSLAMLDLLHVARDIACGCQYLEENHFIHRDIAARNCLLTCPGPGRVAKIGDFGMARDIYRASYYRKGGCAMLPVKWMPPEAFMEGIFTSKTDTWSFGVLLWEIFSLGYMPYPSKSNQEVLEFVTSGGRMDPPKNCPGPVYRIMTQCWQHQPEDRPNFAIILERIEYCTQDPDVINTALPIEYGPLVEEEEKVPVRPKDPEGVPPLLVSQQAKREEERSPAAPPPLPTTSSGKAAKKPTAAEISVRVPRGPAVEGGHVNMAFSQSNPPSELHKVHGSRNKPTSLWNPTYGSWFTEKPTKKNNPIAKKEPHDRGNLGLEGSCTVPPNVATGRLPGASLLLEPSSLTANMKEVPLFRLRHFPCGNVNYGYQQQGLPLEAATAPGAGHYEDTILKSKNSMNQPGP
T1 sequence (P08581 956-1390 limits assumed): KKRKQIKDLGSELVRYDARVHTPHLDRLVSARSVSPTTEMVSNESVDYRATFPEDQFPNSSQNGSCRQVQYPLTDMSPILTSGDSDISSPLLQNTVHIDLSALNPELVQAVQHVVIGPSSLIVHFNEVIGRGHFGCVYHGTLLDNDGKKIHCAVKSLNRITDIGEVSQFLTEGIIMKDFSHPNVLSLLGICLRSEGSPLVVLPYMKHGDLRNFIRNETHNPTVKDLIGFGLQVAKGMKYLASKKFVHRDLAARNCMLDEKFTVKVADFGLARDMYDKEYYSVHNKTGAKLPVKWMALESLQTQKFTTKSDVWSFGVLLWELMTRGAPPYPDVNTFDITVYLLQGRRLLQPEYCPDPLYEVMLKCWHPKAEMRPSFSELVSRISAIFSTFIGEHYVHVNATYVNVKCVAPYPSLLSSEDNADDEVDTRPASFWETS

IC50 [1] [µM] | IC50 [2] [µM] | SMILES
1 to 10 | 1 to 10 | O=C(O)c1ccc(-c2cnc3c(c2)N(Cc2cc(Cl)ccc2C(F)(F)F)CCN3)cc1 [Example 195, 4-{1-[5-Chloro-2-(trifluoromethyl)benzyl]-1,2,3,4-tetrahydropyrido[2,3-b]pyrazin-7-yl}benzoic acid]
> 100 | 1 to 10 | NS(=O)(=O)c1ccc(CNC(=O)c2cnc3c(c2)N(Cc2cc(Cl)ccc2Cl)CCN3)cc1 [Example 263, 1-(2,5-Dichlorobenzyl)-1,2,3,4-tetrahydropyrido[2,3-b]pyrazine-7-carboxylic acid 4-sulfamoyl-benzylamide]
1 to 10 | 0.1 to 1 | CN(C)CCCCCCNC(=O)c1ccc(-c2cnc3c(c2)N(Cc2c(Cl)cccc2Cl)C(=O)CN3)cc1 [Example 143, 4-[1-(2,6-Dichlorobenzyl)-2-oxo-1,2,3,4-tetrahydropyrido[2,3-b]pyrazin-7-yl]-N-(6-dimethylaminohexyl)benzamide, trifluoroacetic acid salt]
> 100 | 1 to 10 | O=C(NC1Cc2ccccc2C1)c1cnc2c(c1)N(Cc1cc(Cl)ccc1Cl)CCN2 [Example 259, 1-(2,5-Dichlorobenzyl)-1,2,3,4-tetrahydropyrido[2,3-b]pyrazine-7-carboxylic acid indan-2-ylamide]
10 to 100 | 10 to 100 | O=S(=O)(c1ccccc1)N1CCNc2ncc(I)cc21 [Example 123, 1-Benzenesulfonyl-7-iodo-1,2,3,4-tetrahydropyrido[2,3-b]pyrazine]
10 to 100 | 0.1 to 1 | O=C1CNc2ncc(-c3ccc(NS(=O)(=O)CCN4CCC[C@H]4CN4CCCC4)cc3)cc2N1Cc1cc(F)ccc1F [Example 49]
> 100 | 10 to 100 | O=C(c1cnc2c(c1)N(Cc1cc(Cl)ccc1Cl)CCN2)N1CCN(CC2CCCCC2)CC1 [Example 262, [(4-Cyclohexylmethyl)piperazin-1-yl]-[1-(2,5-dichlorobenzyl)-1,2,3,4-tetrahydropyrido[2,3-b]pyrazin-7-yl]methanone]
10 to 100 | 1 to 10 | CN(C)CCCCNC(=O)c1ccc(-c2cnc3c(c2)N(Cc2ccccc2)C(=O)CN3)cc1 [Example 15, 4-(1-Benzyl-2-oxo-1,2,3,4-tetrahydropyrido[2,3-b]pyrazin-7-yl)-N-(4-dimethylaminobutyl)benzamide, trifluoroacetic acid salt]
> 100 | 1 to 10 | O=C(c1cnc2c(c1)N(Cc1cc(Cl)ccc1Cl)CCN2)N1CCN(c2ncnc3ccsc23)CC1 [Example 217, [1-(2,5-Dichlorobenzyl)-1,2,3,4-tetrahydropyrido[2,3-b]pyrazin-7-yl]-(4-thieno[3,2-d]pyrimidin-4-yl-piperazin-1-yl)methanone]
10 to 100 | 10 to 100 | O=C(c1cnc2c(c1)N(Cc1cc(Cl)ccc1Cl)CCN2)N1CCN(c2cccc(Cl)c2)CC1 [Example 222, [4-(3-Chlorophenyl)piperazin-1-yl]-[1-(2,5-dichlorobenzyl)-1,2,3,4-tetrahydropyrido[2,3-b]pyrazin-7-yl]methanone]
> 100 | 10 to 100 | O=C(NCc1ccc(-c2ccccc2)cc1)c1cnc2c(c1)N(Cc1cc(Cl)ccc1Cl)CCN2 [Example 249, 1-(2,5-Dichlorobenzyl)-1,2,3,4-tetrahydropyrido[2,3-b]pyrazine-7-carboxylic acid (biphenyl-4-ylmethyl)amide]
1 to 10 | 0.1 to 1 | O=C(c1ccc(-c2cnc3c(c2)N(Cc2cc(F)ccc2F)CCN3)cc1)N1CCOCC1 [Example 68, {4-[1-(2,5-Difluorobenzyl)-1,2,3,4-tetrahydropyrido[2,3-b]pyrazin-7-yl]phenyl}-morpholin-4-yl-methanone]
10 to 100 | 1 to 10 | O=C(c1cnc2c(c1)N(Cc1cc(Cl)ccc1Cl)CCN2)N1CCC(n2c(=O)[nH]c3ccccc32)CC1 [Example 209, 1-{1-[1-(2,5-Dichlorobenzyl)-1,2,3,4-tetrahydropyrido[2,3-b]pyrazine-7-carbonyl]piperidin-4-yl}-1,3-dihydrobenzoimidazol-2-one]
10 to 100 | 10 to 100 | CN1CCN(C(=O)c2ccc(-c3cnc4c(c3)C(Oc3cccnc3)CCN4)cc2)CC1 (stereo not drawn) [Example 276, (4-Methylpiperazin-1-yl)-{4-[5-(pyridine-3-yloxy)-5,6,7,8-tetrahydro-[1,8]naphthyridin-3-yl]phenyl}methanone]
10 to 100 | 1 to 10 | O=C(c1cnc2c(c1)N(Cc1cc(Cl)ccc1Cl)CCN2)N1CCC(N2CCOCC2)CC1 [Example 231, [1-(2,5-Dichlorobenzyl)-1,2,3,4-tetrahydropyrido[2,3-b]pyrazin-7-yl]-(4-morpholin-4-yl-piperidin-1-yl)methanone]
10 to 100 | 1 to 10 | CC(c1cc(F)ccc1F)N1C(=O)CNc2ncc(-c3ccc(C(=O)N4CCN(C)CC4)cc3)cc21 (stereo not drawn) [Example 152, 1-[1-(2,5-Difluorophenyl)ethyl]-7-[4-(4-methylpiperazine-1-carbonyl)phenyl]-3,4-dihydro-1H-pyrido[2,3-b]pyrazin-2-one, trifluoroacetic acid salt]
1 to 10 | 0.1 to 1 | O=C1CNc2ncc(-c3ccc(NC(=O)N4CCC[C@H]4CN4CCCC4)cc3)cc2N1Cc1cc(F)ccc1F [Example 61, (S)-2-[(pyrrolidin-1-yl)methyl]pyrrolidine-1-carboxylic acid{4-[1-(2,5-difluorobenzyl)-2-oxo-1,2,3,4-tetrahydropyrido[2,3-b]pyrazin-7-yl]phenyl}-amide]
> 100 | > 100 | CC(c1cc(F)ccc1F)N1C(=O)CNc2ncc(I)cc21 (stereo not drawn) [Example 150, 1-[1-(2,5-Difluorophenyl)ethyl]-7-iodo-3,4-dihydro-1H-pyrido[2,3-b]pyrazin-2-one]

The remaining lines, values behind:

SMILES | IC50 [1] [µM] | IC50 [2] [µM]
CS(=O)(=O)c1ccc(-c2cnc3c(c2)N(Cc2ccccc2)C(=O)CN3)cc1 [Example 24, 1-Benzyl-7-(4-methanesulfonyl-phenyl)-3,4-dihydro-1H-pyrido[2,3-b]pyrazin-2-one] | > 100 | 1 to 10
O=C(c1cnc2c(c1)N(Cc1cc(Cl)ccc1Cl)CCN2)N1CCC(O)(c2ccc(Cl)cc2)CC1 [Example 208, [4-(4-Chlorophenyl)-4-hydroxypiperidin-1-yl]-[1-(2,5-dichlorobenzyl)-1,2,3,4-tetrahydropyrido[2,3-b]pyrazin-7-yl]methanone] | > 100 | 1 to 10
CN1CCN(c2ccc(-c3cnc4c(c3)N(S(=O)(=O)c3ccccc3)CCN4)cn2)CC1 [Example 125, 1-Benzenesulfonyl-7-[6-(4-methylpiperazin-1-yl)pyridin-3-yl]-1,2,3,4-tetrahydropyrido[2,3-b]pyrazine] | 10 to 100 | 0.1 to 1
Cc1cc(N2CCN(C(=O)c3cnc4c(c3)N(Cc3cc(Cl)ccc3Cl)CCN4)CC2)c2ccccc2n1 [Example 237, [1-(2,5-Dichlorobenzyl)-1,2,3,4-tetrahydropyrido[2,3-b]pyrazin-7-yl]-[4-(2-methylquinolin-4-yl)piperazin-1-yl]methanone] | 1 to 10 | 1 to 10
CN1CCN(c2ccc(-c3cnc4c(c3)C(Oc3c(F)ccc(F)c3Cl)CCN4)cn2)CC1 (stereo not drawn) [Example 273, 4-(2-Chloro-3,6-difluorophenoxy)-6-[6-(4-methylpiperazin-1-yl)pyridin-3-yl]-1,2,3,4-tetrahydro-[1,8]naphthyridine] | 10 to 100 | 10 to 100
NCC#Cc1cnc2c(c1)N(Cc1c(Cl)cccc1Cl)CCN2 [Example 171, 3-[1-(2,6-Dichlorobenzyl)-1,2,3,4-tetrahydropyrido[2,3-b]pyrazin-7-yl]prop-2-ynylamine, trifluoroacetic acid salt] | > 100 | 10 to 100
O=C(c1cnc2c(c1)N(Cc1cc(Cl)ccc1Cl)CCN2)N1CCC2(CC1)C(=O)NCN2c1ccccc1 [Example 216, 8-[1-(2,5-Dichlorobenzyl)-1,2,3,4-tetrahydropyrido[2,3-b]pyrazine-7-carbonyl]-1-phenyl-1,3,8-triaza-spiro[4.5]decan-4-one] | > 100 | 1 to 10
O=C(NCCc1ccccn1)c1cnc2c(c1)N(Cc1cc(Cl)ccc1Cl)CCN2 [Example 223, 1-(2,5-Dichlorobenzyl)-1,2,3,4-tetrahydropyrido[2,3-b]pyrazine-7-carboxylic acid (2-pyridin-2-yl-ethyl)amide] | > 100 | 1 to 10
CN(C)CCNC(=O)c1cccc(-c2cnc3c(c2)N(Cc2ccccc2)C(=O)CN3)c1 [Example 19, 3-(1-Benzyl-2-oxo-1,2,3,4-tetrahydropyrido[2,3-b]pyrazin-7-yl)-N-(2-dimethylamino-ethyl)benzamide, trifluoroacetic acid salt] | 10 to 100 | 1 to 10
O=C(c1cnc2c(c1)N(Cc1cc(Cl)ccc1Cl)CCN2)N1CCC(c2ccccc2)CC1 [Example 212, [1-(2,5-Dichlorobenzyl)-1,2,3,4-tetrahydropyrido[2,3-b]pyrazin-7-yl]-(4-phenylpiperidin-1-yl)methanone] | 1 to 10 | 1 to 10
O=C(NCc1ccncc1)c1cnc2c(c1)N(Cc1cc(Cl)ccc1Cl)CCN2 [Example 234, 1-(2,5-Dichlorobenzyl)-1,2,3,4-tetrahydropyrido[2,3-b]pyrazine-7-carboxylic acid (pyridin-4-ylmethyl)amide] | > 100 | 1 to 10
O=C(c1ccc(-c2cnc3c(c2)N(Cc2cccnc2Cl)CCN3)cc1)N1CCC(N2CCCC2)CC1 [Example 303, {4-[1-(2-Chloropyridin-3-ylmethyl)-1,2,3,4-tetrahydropyrido[2,3-b]pyrazin-7-yl]phenyl}-(4-pyrrolidin-1-yl-piperidin-1-yl)methanone] | > 100 | > 100
